{"source": "patent US20260183407A1", "about": "“DYRK/CLK PROTACS AND USES THEREOF” (Arizona Board of Regents on Behalf of the University of …, priority 2022, published 2026)", "key": {"DYRK1A [1]": {"target": "T1, DYRK1A (Homo sapiens, UniProt Q13627)", "T1 construct": "purchased Eurofins; host or cells: E. coli BL21-derived (T7 phage display) or HEK-293", "experiment": "KdELECT kinase binding assay (Eurofins), DYRK1A", "settings": "11-point 3-fold dilution series, qPCR readout; read-out: Binding Affinity (Kd) DYRK1A"}, "DYRK1B [2]": {"target": "T2, DYRK1B (Homo sapiens, UniProt Q9Y463)", "T2 construct": "purchased Eurofins; host or cells: E. coli BL21-derived (T7 phage display) or HEK-293", "T2 sequence (Q9Y463 whole entry, species assumed)": "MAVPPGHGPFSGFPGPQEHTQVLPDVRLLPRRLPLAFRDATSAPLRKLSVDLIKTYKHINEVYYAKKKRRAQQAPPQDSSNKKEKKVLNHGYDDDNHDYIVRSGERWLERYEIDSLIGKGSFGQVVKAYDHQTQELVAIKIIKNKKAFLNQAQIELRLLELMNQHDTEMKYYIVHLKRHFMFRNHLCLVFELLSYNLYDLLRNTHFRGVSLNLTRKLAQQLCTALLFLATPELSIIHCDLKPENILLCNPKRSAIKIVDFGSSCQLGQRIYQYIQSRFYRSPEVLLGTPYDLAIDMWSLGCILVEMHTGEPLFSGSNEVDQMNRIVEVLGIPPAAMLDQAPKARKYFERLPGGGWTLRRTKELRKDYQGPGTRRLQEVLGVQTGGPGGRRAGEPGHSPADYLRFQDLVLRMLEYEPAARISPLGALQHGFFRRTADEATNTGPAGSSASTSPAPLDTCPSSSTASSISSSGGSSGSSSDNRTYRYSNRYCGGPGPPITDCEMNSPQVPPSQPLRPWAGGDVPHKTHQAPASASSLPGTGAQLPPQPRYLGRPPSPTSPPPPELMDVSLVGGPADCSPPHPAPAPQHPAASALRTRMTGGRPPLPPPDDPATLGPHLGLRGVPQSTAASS", "experiment": "KdELECT kinase binding assay (Eurofins), DYRK1B", "settings": "11-point 3-fold dilution series, qPCR readout; read-out: Binding Affinity (Kd) DYRK1B"}, "DYRK1B [3]": {"target": "T2, DYRK1B", "experiment": "HiBiT split luciferase assay of targeted degradation of DYRK1B in Flp-In T-REx 293 cells", "type": "cell-based", "settings": "300 nM compound, 24 h, HiBiT-tagged DYRK1B in Flp-In T-REx 293 cells, normalized to vehicle; read-out: Relative Degradation at 300 nM DYRK1B", "excerpt": "The Flp-In T-REx 293 Cell Line and the pcDNA5/FRT/TO vector (Invitrogen) were used to generate stable cell clones for tetracyclin-inducible expression of DYRK1A and DYRK1B. These cells contain a single stably integrated Flp recognition target (FRT) site, which allows for site-specific integration of the expression cassette by the Flp (Flippase) recombinase. DYRK1 constructs were designed to contain a C-terminal HiBiT tag for quantitative detection of HiBiT-tagged proteins in cellular lysates with the help a split luciferase assay (Nano-Glo HiBiT Lytic Detection System, Promega). To monitor the targeted degradation of DYRK1A or DYRK1B, cells were seeded in 96-well plates (10,000 cells/per well) and treated with doxycyclineinal concentration 2 μg/ml) to induce DYRK1 expression. Compounds with presumed PROTAC activity were administered 24 h after seeding. After further incubation for 24 h, cells were grossly and microscopically inspected for overt toxicity. Cells were lysed in 100 μL ice-cold passive lysis buffer (PLB, Promega) by orbital shaking (30 min on ice) before lysates were centrifuged in PCR tube (20 min 20,000 g, RT). A 10 μl aliquot of the supernatant was subjected to the HiBiT lytic assay. Luminescence was quantified in an Orion Microplate luminometer (Berthold Detection System, Germany). All compounds were tested in duplicate or triplicate wells (technical replicates) and at least two independent experiments. Relative degradation was calculated by normalization to vehicle-treated control samples."}, "DYRK1A [4]": {"target": "T1, DYRK1A", "experiment": "HiBiT split luciferase assay of targeted degradation of DYRK1A in Flp-In T-REx 293 cells", "type": "cell-based", "settings": "300 nM compound, 24 h, HiBiT-tagged DYRK1A in Flp-In T-REx 293 cells, normalized to vehicle; read-out: Relative Degradation at 300 nM DYRK1A"}}}
{"smiles": "Cc1ncsc1-c1ccc(CNC(=O)[C@@H]2C[C@@H](O)CN2C(=O)[C@@H](NC(=O)CCOCCOCCOCCOCCOCCN2CCN(c3ccc(-n4c(C)nc5ccc(-c6ccnc(N)c6)nc54)cc3F)CC2)C(C)(C)C)cc1", "note": "[Compound 4, (2S,4R)-1-((S)-1-(4-(4-(5-(2-aminopyridin-4-yl)-2-methyl-3H-imidazo[4,5-b]pyridin-3-yl)-2-fluorophenyl)piperazin-1-yl)-20-(tert-butyl)-18-oxo-3,6,9,12,15-pentaoxa-19-azahenicosan-21-oyl)-4-hydroxy-N-(4-(4-methylthiazol-5-yl)benzyl)pyrrolidine-2-carboxamide]", "values": [{"measurement": "Kd", "setting": "DYRK1A [1]", "value": "< 10", "unit": "nM"}, {"measurement": "Kd", "setting": "DYRK1B [2]", "value": "< 10", "unit": "nM"}, {"measurement": "inhibition at 0.3 µM", "setting": "DYRK1B [3]", "value": "< 30", "unit": "%"}, {"measurement": "inhibition at 0.3 µM", "setting": "DYRK1A [4]", "value": "< 30", "unit": "%"}]}
{"smiles": "Cc1nc2ccc(-c3ccnc(N)c3)nc2n1-c1ccc(N2CCN(CCOCCOCCC(=O)N3CCN(Cc4ccc(CNc5cccc6c5CN(C5CCC(=O)NC5=O)C6=O)cc4)CC3)CC2)c(F)c1", "note": "(stereo not shown) [Compound 10, 3-(4-((4-((4-(3-(2-(2-(4-(4-(5-(2-aminopyridin-4-yl)-2-methyl-3H-imidazo[4,5-b]pyridin-3-yl)-2-fluorophenyl)piperazin-1-yl)ethoxy)ethoxy)propanoyl)piperazin-1-yl)methyl)benzyl)amino)-1-oxoisoindolin-2-yl)piperidine-2,6-dione]", "values": [{"measurement": "Kd", "setting": "DYRK1A [1]", "value": "< 10", "unit": "nM"}, {"measurement": "Kd", "setting": "DYRK1B [2]", "value": "10 to 100", "unit": "nM"}, {"measurement": "inhibition at 0.3 µM", "setting": "DYRK1B [3]", "value": "< 30", "unit": "%"}, {"measurement": "inhibition at 0.3 µM", "setting": "DYRK1A [4]", "value": "30 to 60", "unit": "%"}]}
{"smiles": "Cc1nc2ccc(-c3ccnc(N)c3)nc2n1-c1ccc(N2CCN(CCOCCOCCOCCNc3cccc4c3C(=O)N(C3CCC(=O)NC3=O)C4=O)CC2)c(F)c1", "note": "(stereo not shown) [Compound 6, 4-((2-(2-(2-(2-(4-(4-(5-(2-aminopyridin-4-yl)-2-methyl-3H-imidazo[4,5-b]pyridin-3-yl)-2-fluorophenyl)piperazin-1-yl)ethoxy)ethoxy)ethoxy)ethyl)amino)-2-(2,6-dioxopiperidin-3-yl)isoindoline-1,3-dione]", "values": [{"measurement": "Kd", "setting": "DYRK1A [1]", "value": "< 10", "unit": "nM"}, {"measurement": "Kd", "setting": "DYRK1B [2]", "value": "< 10", "unit": "nM"}, {"measurement": "inhibition at 0.3 µM", "setting": "DYRK1B [3]", "value": "< 30", "unit": "%"}, {"measurement": "inhibition at 0.3 µM", "setting": "DYRK1A [4]", "value": "30 to 60", "unit": "%"}]}
{"smiles": "Cc1nc2ccc(-c3ccnc(N)c3)nc2n1-c1ccc(N2C[C@@H]3C[C@H]2CN3CC#Cc2ccc(N3CCC(C(=O)N4CCC(n5cc(CNc6cccc7c6C(=O)N(C6CCC(=O)NC6=O)C7=O)cn5)CC4)CC3)nc2)c(F)c1", "note": "(stereo partly drawn) [Compound 20, 4-(((1-(1-(1-(5-(3-((1S,4S)-5-(4-(5-(2-aminopyridin-4-yl)-2-methyl-3H-imidazo[4,5-b]pyridin-3-yl)-2-fluorophenyl)-2,5-diazabicyclo[2.2.1]heptan-2-yl)prop-1-yn-1-yl)pyridin-2-yl)piperidine-4-carbonyl)piperidin-4-yl)-1H-pyrazol-4-yl)methyl)amino)-2-(2,6-dioxopiperidin-3-yl)isoindoline-1,3-dione]", "values": [{"measurement": "Kd", "setting": "DYRK1A [1]", "value": "< 10", "unit": "nM"}, {"measurement": "Kd", "setting": "DYRK1B [2]", "value": "10 to 100", "unit": "nM"}, {"measurement": "inhibition at 0.3 µM", "setting": "DYRK1B [3]", "value": "< 30", "unit": "%"}, {"measurement": "inhibition at 0.3 µM", "setting": "DYRK1A [4]", "value": "30 to 60", "unit": "%"}]}
